One assay deals with IspG. The settings on record: cited from earlier work.
For assay [1], the system named is IspH. The settings on record: cited from earlier work.
Assay [2] has as its target IspH. It is filed as biochemical.

The structures appear in SMILES notation. Like-named read-outs stand apart in the source and are kept apart here.

For the compound `C#CCOP(=O)(O)OP(=O)(O)O` [Compound 5, propargyl diphosphate], the “IspG inhibition (in words)” value in the assay on IspG was “low μM inhibitors”. Moreover, the “IspH inhibition (in words)” value in the assay on IspH [1] is listed as “low μM inhibitors”.
On to `C#CCO` [propargyl alcohol], for which the inhibitory constant (Ki) (commonly the equilibrium dissociation constant of an inhibitor or competing ligand from its target) at IspH [2] (read-out: IspH inhibition Ki) was more than 10000 µM.
Take `Nc1ccc2c(c1)CC1(C(=O)NC(=O)NC1=O)C1CN(Cc3ccccc3)CCN21` (stereo not shown) [Compound 9, 8-amino-3-benzyl-2,3,4,4a-tetrahydro-1H,2′H,6H-spiro[pyrazino[1,2-a]quinoline-5,5′-pyrimidine]-2′,4′,6′ (1′H,3′H)-trione]: the Ki at IspH [2] (read-out: Ki of barbiturate analogs, IspH (summary over enzymes)) was in the range of 0.5 to 3 µM.
